The source of these data is patent publication US12022830B2, “Formulations of metal and ascorbic acid complexes, their obtaining and use” (INTERMAG SP. Z O.O., priority 2017, dated 2024).

Series [1] is described as follows: Study of solution stability for a given complex. Format: physicochemical.
In the next series the test system is Alternaria brassicae. The note with it: foliar, 32.6 g TiO(Asc)2.2H2O/ha, three dates. The method, then:
(§1) The experiments on the effect of the formulations according to the invention (liquid preparation obtained after dissolving the solid blend, according to the invention) were performed on winter oilseed rape, winter wheat and corn plants at the Institute of Plant Protection in Poznan at the Experimental Station in Winna Góra.

The subject of another series is Botrytis cinerea. The note with it: foliar, 32.6 g TiO(Asc)2.2H2O/ha, three dates. How it is done: as §1
The subject of a further series is cabbage seed weevil. The note with it: foliar, 32.6 g TiO(Asc)2.2H2O/ha, three dates. How it is done: as §1
The next series concerns corn of Wilga type. Conditions: foliar, 32.6 g TiO(Asc)2.2H2O/ha, BBCH 12-14, 18-20, 35-39. The method, then:
as §1

The test system of another series is wheat of Figura type. Conditions: foliar, 32.6 g TiO(Asc)2.2H2O/ha, BBCH 22-29, 30-51, 51-73. How it is done: as §1
Series [2] deals with winter oilseed rape of Artoga type. Conditions: foliar, 32.6 g TiO(Asc)2.2H2O/ha, BBCH 21-36, 50-61, 69-73. How it is done: as §1
A further series deals with corn borer moth. Description: Infestation of corn by corn borer moth. Format: in vivo. The note with it: foliar, 32.6 g TiO(Asc)2.2H2O/ha, three dates.
For another series, the system named is cereal leaf beetle. Description: Infestation of wheat by cereal leaf beetle. It is filed as in vivo. The note with it: foliar, 32.6 g TiO(Asc)2.2H2O/ha, three dates.
The next series has as its system fragility of stem base. Description: Infestation of wheat through the fragility of stem base. Format: in vivo. Conditions: treated plants; control 48% infested plants.
Series [3] concerns fusarium foot and root rot. Description: Fusarium foot and root rot on wheat. It is filed as in vivo. The note with it: sprayed plants; control 12% of infestations.
A further series relates to Cladosporium herbarum. Description: Infestation of wheat spikes by Cladosporium herbarum. Format: in vivo. The note with it: sprayed plants, control 20%. The source says: (§2) In the case of diseases attacking spikes, on the control combination, infestation by Cladosporium herbarum at 20%, by Septoria nodorum at 10% and by Gibberella avenacea at 10% were found. On sprayed plants, infestations were 1%, 1% and 0% respectively.

The next series relates to Septoria nodorum. Description: Infestation of wheat spikes by Septoria nodorum. Format: in vivo. Conditions: sprayed plants, control 10%.
Text: as §2

Another series concerns Gibberella avenacea. Description: Infestation of wheat spikes by Gibberella avenacea. Format: in vivo. The note with it: sprayed plants, control 10%.
Text: as §2

A further series concerns butterhead lettuce. Description: Cultivation of butterhead lettuce, uptake of nutrients. The note with it: aboveground parts, dry mass, 20th day, two sprays, 0.0085% Ti. It is filed as in vivo. The method, then:
TiO(OH)(C6H7O6).1H2O was used in the amount of 9.7 g/ha (0.005%, 0.0085% Ti), (TiO(C6H7O6)2.2H2O) was used in the amount of 16.3 g/ha (0.008%, 0.0085% Ti), TiO(C6H7O6)3.3H2O was used in the amount of 22.9 g/ha (0.011%, 0.0085% Ti), TiO(C6H7O6)4.5H2O was used in the amount of 30.9 g/ha (0.015%, 0.0085% Ti) in a single spray after previously dissolving them in 200 l of water. The spraying was performed with a manual sprayer at the smallest possible drop setting. Plants were sprayed evenly from a distance of about 30 cm.
Substrate: a mixture of peat deacidified with chalk (producer: Hollas) and rinsed quartz sand with a granulation of 4-8 mm. Volume ratio of the mixture: 1:4. Agrofoska (Intermag) fertiliser in the amount of 3 kg/m^3 was added to the substrate. Pots with a volume of about 3 l were used.
Spraying was performed twice with the preparation with the same concentrations of working liquid: spray 1 on the 7th day of the experiment; spray 2 on the 14th day of the experiment.
The experiment was randomised and there were 10 repetitions for each combination (1 repetition=one pot)
(§3) The content of nutrients was tested in the aboveground parts of plants, based on dry mass content.

The test system of a further series is wheat. The series is described as follows: Cultivation of wheat, chlorophyll content and uptake of nutrients. It is filed as in vivo. Conditions: for Content of chlorophyll in leaves: 20th day of the experiment; for Fe content / K content / P content / Ti content / Zn content: aboveground parts, dry mass, 20th day. The method, then:
Experiments for the use of titanium complex in the solid formulation TiO(Asc)2.2H2O on wheat were performed analogously to Example 14.
as §3

For series [4], the system named is Iceberg cabbage lettuce (Lactuca sativa) of Rubette type. Description: Titanyl ascorbates in cultivation of iceberg lettuce, head mass, chlorophyll, flavonoids. It is filed as in vivo. The note with it: foliar twice, 0.00085% Ti, total 3.4 g Ti/ha. The method, then: Iceberg cabbage lettuce (Lactuca sativa) of Rubette type was cultivated in a plastic tunnel in pots with a capacity of 3 l filled with a peat substrate. […] In two applications, the total titanium dose per hectare was 3.4 g Ti/ha. The experiment was performed in a random block system, combinations were drawn in 4 blocks. […] Flavonoids are antioxidant compounds, they protect plant cell structures against reactive oxygen species formed under the influence of abiotic and biotic stress factors. These compounds are the first to be synthesised when unfavourable conditions of the growing environment occur.

The subject of the next series is rape. Description: Cultivation of rape, vegetative mass and uptake of nutrients. The note with it: for Number of plant leaves / Total wet mass of the aboveground part / Wet mass of leaves / Wet mass of stem: 20th day of the experiment; for Fe content / Mg content / Mn content / P content / Si content / Ti content / Zn content: aboveground parts, dry mass, 20th day. It is filed as in vivo. How it is done: Experiments for the use of titanium complex for rape were performed analogously to Example 14.
as §3

[5] abbreviates: 5% solution obtained by dissolving in water.

As to `O.O.O=C1OC(C(O)CO)C([O-])=C1O.O=C1OC(C(O)CO)C([O-])=C1O.[O]=[Ti+2]` (stereo not drawn) [TiO(C6H7O6)2•2H2O, titanyl ascorbate], in series [1] (setting [5]), the “stable during long storage” value is “up to 12 months” and the “temperature at which the solution remains stable” value is −5 to +40 °C. In addition, the “behaviour after freezing and thawing” value in series [1] (5% solution, overcooled below −7° C., then raised above 0° C.) was “retains its original physicochemical properties”. For the same compound, in series [1] (complexes in the form of solutions), the “stability of the solution among the complexes” value is given as “most stable”. Moreover, the “Infestation of siliques by Alternaria brassicae smaller than the control combination” value in the series with Alternaria brassicae was 52%. In addition, in the series on Botrytis cinerea, the “Infestation of siliques by Botrytis cinerea smaller than the control combination” value is 77%. In addition, the “Siliques damaged by cabbage seed weevil fewer than in the control combination” value in the series on cabbage seed weevil is listed as 80%. Further, the “Corn yield increased compared to the control combination” value in the series on corn of Wilga type is reported as 13 % (m/m). In addition, the “Wheat yield increased compared to the control combination” value with wheat of Figura type was 16 % (m/m). Moreover, in [2], the “Rape yield increased compared to the control combination” value was determined as 15%. Further, in the series with corn borer moth, the “decrease in the infestation by corn borer moth in comparison to untreated plants” value is 43%. In addition, the “decrease in the infestation by cereal leaf beetle in comparison to untreated plants” value in the series on cereal leaf beetle turned out to be 74%. In addition, the “infestation through the fragility of stem base” value in the series with fragility of stem base worked out at 4%. Further, the “symptoms of fusarium foot and root rot” value in [3] is “not any symptoms”. For the same compound, the “infestation by Cladosporium herbarum” value in the series on Cladosporium herbarum was 1%. The “infestation by Septoria nodorum” value with Septoria nodorum is given as 1%. In the series with Gibberella avenacea, the “infestation by Gibberella avenacea” value stood at 0%. Further, in the series on butterhead lettuce, the B content is given as 83.31 mg/kg, the Ca content was 17.41 g/kg, the Cu content stood at 7.13 mg/kg and the Fe content stood at 794.44 mg/kg. In addition, in the series on butterhead lettuce, the K content worked out at 7.48 g/kg, the Mg content amounted to 6.66 g/kg, the Mn content is on record as 687.51 mg/kg and the S content turned out to be 7.41 g/kg. For the same compound, in the series on butterhead lettuce, the Ti content is 4.27 mg/kg and the Zn content is 154.18 mg/kg. Moreover, in the series with wheat, the “Content of chlorophyll in leaves” value is recorded as 48.03 SPAD, the Fe content is reported as 85.056 mg/kg, the K content is 55.27 g/kg and the P content worked out at 10.43 g/kg. In the series on wheat, this compound registered a Ti content of 1.390 mg/kg and a Zn content of 48.850 mg/kg. For the same compound, in [4], the Chlorophyll came to 27.4 μg/cm^2, the Dry mass is on record as 7.23 g, the Flavonoids came out at 0.32 μg/cm^2 and the Mass of head is 82.8 g.

`O.O=C1OC(C(O)CO)C([O-])=C1O.[OH-].[O]=[Ti+2]` (stereo not drawn) [TiO(OH)(C6H7O6)•1H2O, titanyl ascorbate]: in the series on rape, the “Number of plant leaves” value was found to be 8.28, the “Total wet mass of the aboveground part” value worked out at 38.3, the “Wet mass of leaves” value came out at 19.00 g and the “Wet mass of stem” value was found to be 21.53 g. In the series with rape, this compound showed a Fe content of 1957.19 mg/kg, a Mg content of 8.859 g/kg, a Mn content of 1350.53 mg/kg and a P content of 8.74 g/kg. In the series on rape, this compound came in with a Si content of 118.21 mg/kg, a Ti content of 1.55 mg/kg and a Zn content of 362.63 mg/kg. Further, in the series with wheat, the “Content of chlorophyll in leaves” value was 47.17 SPAD, the Fe content is reported as 96.280 mg/kg, the K content stood at 57.21 g/kg and the P content was determined as 9.86 g/kg. Further, in the series on wheat, the Ti content is listed as 1.444 mg/kg and the Zn content came out at 47.880 mg/kg.

For titanyl ascorbate [TiO(C6H7O6)3•3H2O], in the series with butterhead lettuce, the B content was 72.35 mg/kg, the Ca content worked out at 17.84 g/kg, the Cu content is reported as 5.46 mg/kg and the Fe content was 842.63 mg/kg. For the same compound, in the series on butterhead lettuce, the K content was 6.97 g/kg, the Mg content was 6.03 g/kg, the Mn content is given as 757.37 mg/kg and the Si content is recorded as 257.62 mg/kg. For the same compound, in the series with butterhead lettuce, the Ti content was 2.37 mg/kg and the Zn content is recorded as 155.38 mg/kg. In addition, in the series with rape, the “Number of plant leaves” value is 7.94, the “Total wet mass of the aboveground part” value was determined as 39.61, the “Wet mass of leaves” value is listed as 17.74 g and the “Wet mass of stem” value is recorded as 21.58 g. In the series on rape, this compound showed a Fe content of 1739.07 mg/kg, a Mg content of 7.86 g/kg, a Mn content of 1440.47 mg/kg and a P content of 11.43 g/kg. In the series on rape, this compound yielded a Si content of 159.40 mg/kg, a Ti content of 1.07 mg/kg and a Zn content of 413.68 mg/kg. Besides, in the series on wheat, the “Content of chlorophyll in leaves” value is 45.60 SPAD, the Fe content is reported as 97.390 mg/kg, the K content is 57.22 g/kg and the P content is reported as 9.47 g/kg. Further, in the series with wheat, the Ti content is given as 1.311 mg/kg and the Zn content is on record as 51.410 mg/kg.

For titanyl ascorbate [TiO(C6H7O6)4•5H2O], in the series on wheat, the “Content of chlorophyll in leaves” value was 47.06 SPAD, the Fe content is 100.910 mg/kg, the K content was 53.29 g/kg and the P content was determined as 10.09 g/kg. In the series with wheat, this compound yielded a Ti content of 1.150 mg/kg and a Zn content of 44.290 mg/kg.
